How the values were obtained:
JAK1 kinase = JAK1 kinase (Homo sapiens (Human), UniProt P23458); assay: Biochemical Potency JAK1 (TR-FRET LANCE Ultra kinase assay); details: ATP corresponding to Km
Source text: The objective of this study was to assess the activity of novel JAK inhibitors measuring the capability of compounds to inhibit JAK1 kinase activity in a biochemical time-resolved fluorescence resonance energy transfer (TR-FRET) LANCE assay. In
LANCE Ultra kinase assay in the presence of JAK1 kinase and ATP (corresponding to Km), the ULight peptide substrate (LANCE Ulight-JAK-1 (Tyr1023) Peptide, Perkin Elmer, TRF0121) was phosphorylated. It was then captured by a Eu-anti-phospho-substrate antibody (LANCE Eu-W1024 Anti-phosphotyrosine (PT66), Perkin Elmer, AD0069), which brought the Eu-chelate donor and ULight acceptor dyes into close proximity. Upon excitation at 320 nm, the Eu-chelate transfers its energy to the ULight dye, resulting in a fluorescent light emission at 665 nm. Inhibitors were tested at 11 consecutive 5-fold dilutions starting from 30 μM (30 μM—3 pM) in duplicate. Calculation of IC50 data, curves and QC analysis were made using Excel tools and GraphPadPrism software. QC criteria parameters: Z′≥0.5, Hill Slope range 0.5 to 5, S:B>2.

[1] = test system: IL-2 induced phosphorylation of STAT5 (JAK1/JAK3 activity) in human PBMCs; assay: Cell Based assay PBMC (IL-2 stimulated pSTAT5); details: 0.5 h, rh IL-2, 30 min incubation, pSTAT5 ELISA, data displayed as pIC50
Experimental: In addition to enzymatic potency, the effects of the inhibitors against JAK1/JAK3 activity in a cellular assay was characterized against IL-2 induced phosphorylation of STATS level in human peripheral blood mononuclear cells (PBMCs).
PBMC have been isolated from human healthy volunteers. Cells were seeded in wells and treated with compounds and rh IL-2. After 30 min incubation cells were lysed and pSTAT5 determined by PathScan phospho-stats (Tyr694) ELISA (Cell signaling). Inhibitors were tested at 11 consecutive 5-fold dilutions starting from 30 μM (30 μM—3 pM) in duplicate. Calculation of IC50 data, curves and QC analysis were made using
Excel tools and GraphPadPrism software. QC criteria parameters: Z′≥0.35, Hill Slope range 0.5 to 5, S:B >2.

Chain of JAK1 kinase (P23458 whole entry): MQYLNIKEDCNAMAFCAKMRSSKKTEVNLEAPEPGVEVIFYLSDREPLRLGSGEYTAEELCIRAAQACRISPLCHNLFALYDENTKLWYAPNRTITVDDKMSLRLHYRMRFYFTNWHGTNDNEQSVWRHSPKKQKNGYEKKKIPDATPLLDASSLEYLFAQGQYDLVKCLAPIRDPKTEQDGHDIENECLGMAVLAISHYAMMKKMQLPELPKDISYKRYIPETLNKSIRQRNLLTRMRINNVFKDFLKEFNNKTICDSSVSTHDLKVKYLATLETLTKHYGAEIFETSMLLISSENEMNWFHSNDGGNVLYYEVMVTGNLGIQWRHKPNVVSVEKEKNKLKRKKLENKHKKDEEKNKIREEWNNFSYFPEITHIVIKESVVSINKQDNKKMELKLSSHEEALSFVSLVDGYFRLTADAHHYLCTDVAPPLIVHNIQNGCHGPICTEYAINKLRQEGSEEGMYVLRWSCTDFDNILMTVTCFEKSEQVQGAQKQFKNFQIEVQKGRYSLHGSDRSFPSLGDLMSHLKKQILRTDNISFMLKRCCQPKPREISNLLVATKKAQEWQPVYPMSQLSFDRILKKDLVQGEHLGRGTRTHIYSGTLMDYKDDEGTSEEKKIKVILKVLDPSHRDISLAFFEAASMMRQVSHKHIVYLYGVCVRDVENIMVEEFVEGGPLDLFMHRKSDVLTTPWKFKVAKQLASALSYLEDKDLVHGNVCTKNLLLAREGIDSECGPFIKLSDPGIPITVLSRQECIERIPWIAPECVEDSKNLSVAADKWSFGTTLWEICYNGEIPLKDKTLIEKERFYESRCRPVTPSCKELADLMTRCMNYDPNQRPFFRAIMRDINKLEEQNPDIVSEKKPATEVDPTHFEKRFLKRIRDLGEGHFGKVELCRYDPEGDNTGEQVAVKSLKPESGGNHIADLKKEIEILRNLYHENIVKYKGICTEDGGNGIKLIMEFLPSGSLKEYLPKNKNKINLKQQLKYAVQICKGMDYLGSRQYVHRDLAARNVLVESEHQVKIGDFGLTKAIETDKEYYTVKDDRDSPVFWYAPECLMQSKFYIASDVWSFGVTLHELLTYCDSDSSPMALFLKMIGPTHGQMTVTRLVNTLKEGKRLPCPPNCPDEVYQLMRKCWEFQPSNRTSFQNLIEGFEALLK

## CN(c1ncnc2[nH]ccc12)[C@@H]1CCN(c2ccc(C#N)c(F)c2)C1 [Example 1, (R)-2-fluoro-4-(3-(methyl(7H-pyrrolo[2,3-d]pyrimidin-4-yl)amino)pyrrolidin-1-yl)benzonitrile]
JAK1 kinase
  Biochemical Potency JAK 1 (pIC50): 8.6
[1]
  IC50: 50.1 nM

## CN(c1ncnc2[nH]ccc12)C1CCN(c2ccc(C#N)nc2)C1 (stereo not drawn) [Example 2, 5-(3-(methyl(7H-pyrrolo[2,3-d]pyrimidin-4-yl)amino)pyrrolidin-1-yl)picolinonitrile]
JAK1 kinase
  Biochemical Potency JAK 1 (pIC50): 7.9
[1]
  IC50: 251 nM

## CN(c1ncnc2[nH]ccc12)[C@@H]1CCN(c2ccc(C(=O)Nc3nccs3)cn2)C1 [Example 3, (R)-6-(3-(methyl(7H-pyrrolo[2,3-d]pyrimidin-4-yl)amino)pyrrolidin-1-yl)-N-(thiazol-2-yl)nicotinamide]
JAK1 kinase
  Biochemical Potency JAK 1 (pIC50): 7.7
[1]
  IC50: 501 nM

## N#Cc1ccc(N2CCC(Nc3c(C(N)=O)cnc4ccsc34)C2)cc1F (stereo not drawn) [Example 4, 7-((1-(4-cyano-3-fluorophenyl)pyrrolidin-3-yl)amino)thieno[3,2-b]pyridine-6-carboxamide]
JAK1 kinase
  Biochemical Potency JAK 1 (pIC50): 7
[1]
  IC50: 3160 nM

## COC(=O)C(c1ccc(Cl)cc1F)N1CCC(N(C)c2ncnc3[nH]ccc23)C1 (stereo not drawn) [Example 5, methyl 2-(4-chloro-2-fluorophenyl)-2-(3-(methyl(7H-pyrrolo[2,3-d]pyrimidin-4-yl)amino)pyrrolidin-1-yl)acetate]
JAK1 kinase
  Biochemical Potency JAK 1 (pIC50): 7.6

## CN(c1ncnc2[nH]ccc12)C1CCN(C(C(=O)O)c2ccc(Cl)cc2F)C1 (stereo not drawn) [Example 6, 2-(4-chloro-2-fluorophenyl)-2-(3-(methyl(7H-pyrrolo[2,3-d]pyrimidin-4-yl)amino)pyrrolidin-1-yl)acetic acid]
JAK1 kinase
  Biochemical Potency JAK 1 (pIC50): 5.3

## CCOC(=O)c1cnc2ccsc2c1NC1CCN(c2ccc(C#N)c(F)c2)C1 (stereo not drawn) [Example 7, ethyl 7-((1-(4-cyano-3-fluorophenyl)pyrrolidin-3-yl)amino)thieno[3,2-b]pyridine-6-carboxylate]
JAK1 kinase
  Biochemical Potency JAK 1 (pIC50): 6
[1]
  IC50: 2510 nM

## N#Cc1ccc(N2CCC(Nc3c(C(=O)O)cnc4ccsc34)C2)cc1F (stereo not drawn) [Example 8, 7-((1-(4-cyano-3-fluorophenyl)pyrrolidin-3-yl)amino)thieno[3,2-b]pyridine-6-carboxylic acid]
JAK1 kinase
  Biochemical Potency JAK 1 (pIC50): 5.3
[1]
  IC50: 31600 nM

## CN(c1ncnc2[nH]ccc12)[C@@H]1CCN(c2cc(F)ccc2C#N)C1 [Example 9, (R)-4-fluoro-2-(3-(methyl(7H-pyrrolo[2,3-d]pyrimidin-4-yl)amino)pyrrolidin-1-yl)benzonitrile]
JAK1 kinase
  Biochemical Potency JAK 1 (pIC50): 7.6
[1]
  IC50: 398 nM

## CN(c1ncnc2[nH]ccc12)[C@@H]1CCN(c2cnc(C#N)nc2)C1 [Example 10, (R)-5-(3-(methyl(7H-pyrrolo[2,3-d]pyrimidin-4-yl)amino)pyrrolidin-1-yl)pyrimidine-2-carbonitrile]
JAK1 kinase
  Biochemical Potency JAK 1 (pIC50): 7.9
[1]
  IC50: 200 nM

Source: patent publication US20240166651A1, “HETEROCYCLIC DERIVATIVES AS JANUS KINASE INHIBITORS” (CHIESI FARMACEUTICI S.P.A., priority 2021, published 2024)
